Measured values reported in patent publication EP2741758B1, “POLYPHENOLIC FORMULATION, ITS PREPARATION AND USE” (Uniwersytet Medyczny W Lodzi, priority 2011, dated 2013).

Tested on: HepG2, HMEC-1, A549, Caco-2, 3T3
Experiment: Multiparameter automated HCS cytotoxicity test "Cell health assay"
Type: cell-based
Parameters: scale not given here
Conditions: for cumulative cytotoxicity index: points over 5 cell lines; for cumulative cytotoxicity index, Total: sum over the five concentrations
Method: Thanks to the use of three fluorescent dyes (MitoTracker - Invitrogen, YO-[…], Hoechst 33 342 - Sigma), assessment of the impact of the studied extracts on the size, and morphology of the nucleus, cytoplasmic membrane integrity, and mitochondrial activity was made. Tests were performed on 96-well plates using 5 cell lines (HepG2, HMEC-1, A549, Caco-2, 3T3). The measurements were taken using automatic pipetting station JANUS by Perkin Elmer. The formulation was examined at five concentrations, measurements were taken in duplicates in 5 independent series. Based on the raw experimental data, statistical analysis of significance of observed differences in average values for three selected measurement parameters, measuring the fluorescence intensity, and dyed surface in cells, using fluorescent dyes, was made. The selected parameters illustrate: • 1. Surface of the cell nucleus (Hoechst (Sigma) • 2. Accumulation of YO-[…] dye (Invitrogen), indicating cytoplasmic membrane damage • 3. Mitochondrial potential (MitoTracker - Invitrogen) Then, the statistically significant differences for each tested concentration of each substance, which indicate morphological, and functional changes in cells, showing cytotoxic activity, were assigned with point values as shown in the diagram of assessment of the observed effects below. Differences subject to the scoring: • 1. Decrease, or increase in nucleus surface • 2. Increase in the accumulation of YO-[…] • 3. Decrease in the mitochondrial potential The following Table 13 illustrates the assigned point values given to the studied formulations in "Cell health assay" test. Table 13. Point values adopted in "Cell health assay" test. [table]

Which cumulative cytotoxicity index (5 µg/ml) does the source give for `O=c1c(O)c(-c2ccc(O)cc2)oc2cc(O)cc(O)c12` [Kaempferol] here?
Its cumulative cytotoxicity index is 2.6.

What about the cumulative cytotoxicity index (10 µg/ml) of the same compound?
The cumulative cytotoxicity index was 1.4.

What about the cumulative cytotoxicity index (30 µg/ml) of the same compound?
The cumulative cytotoxicity index was 8.4.

And the cumulative cytotoxicity index (40 µg/ml)?
The cumulative cytotoxicity index was 8.4.

And the cumulative cytotoxicity index (50 µg/ml)?
Its cumulative cytotoxicity index is 6.2.

And the “cumulative cytotoxicity index, Total” value?
The value was 27.0.

Which cumulative cytotoxicity index (5 µg/ml) does the source give for `C[C@@H]1O[C@@H](O[C@H]2[C@H](Oc3cc(O)c4c(c3)O[C@H](c3ccc(O)cc3)CC4=O)O[C@H](CO)[C@@H](O)[C@@H]2O)[C@H](O)[C@H](O)[C@H]1O` [Naringin] here?
The cumulative cytotoxicity index was 0.0.

What about the cumulative cytotoxicity index (10 µg/ml) of the same compound?
Its cumulative cytotoxicity index is 0.0.

What about the cumulative cytotoxicity index (30 µg/ml) of the same compound?
Its cumulative cytotoxicity index is 0.2.

What about the cumulative cytotoxicity index (40 µg/ml) of the same compound?
The cumulative cytotoxicity index was 1.4.

What about the cumulative cytotoxicity index (50 µg/ml) of the same compound?
Its cumulative cytotoxicity index is 0.2.

What about the “cumulative cytotoxicity index, Total” value of the same compound?
The value was 1.8.
